Results from patent US8389500B2, “Fused heterocyclic compounds as ion channel modulators” (Gilead Sciences, Inc., priority 2008, dated 2013).

These molecules were tested against T1, wild-type human cardiac sodium channel, hNav1.5 (late sodium current) (Homo sapiens, UniProt Q14524) (assay: Late INa screening assay (PatchXpress whole cell patch clamp)). Conditions: 1 μM test compound; HEK293 hNav1.5; late INa generated with 10 μM Tefluthrin (some experiments 50 nM ATX II); read-out: Late INa % blk (1 μM test cmpd).
T1 construct: host or cells: HEK293
T1 sequence (Q14524 whole entry): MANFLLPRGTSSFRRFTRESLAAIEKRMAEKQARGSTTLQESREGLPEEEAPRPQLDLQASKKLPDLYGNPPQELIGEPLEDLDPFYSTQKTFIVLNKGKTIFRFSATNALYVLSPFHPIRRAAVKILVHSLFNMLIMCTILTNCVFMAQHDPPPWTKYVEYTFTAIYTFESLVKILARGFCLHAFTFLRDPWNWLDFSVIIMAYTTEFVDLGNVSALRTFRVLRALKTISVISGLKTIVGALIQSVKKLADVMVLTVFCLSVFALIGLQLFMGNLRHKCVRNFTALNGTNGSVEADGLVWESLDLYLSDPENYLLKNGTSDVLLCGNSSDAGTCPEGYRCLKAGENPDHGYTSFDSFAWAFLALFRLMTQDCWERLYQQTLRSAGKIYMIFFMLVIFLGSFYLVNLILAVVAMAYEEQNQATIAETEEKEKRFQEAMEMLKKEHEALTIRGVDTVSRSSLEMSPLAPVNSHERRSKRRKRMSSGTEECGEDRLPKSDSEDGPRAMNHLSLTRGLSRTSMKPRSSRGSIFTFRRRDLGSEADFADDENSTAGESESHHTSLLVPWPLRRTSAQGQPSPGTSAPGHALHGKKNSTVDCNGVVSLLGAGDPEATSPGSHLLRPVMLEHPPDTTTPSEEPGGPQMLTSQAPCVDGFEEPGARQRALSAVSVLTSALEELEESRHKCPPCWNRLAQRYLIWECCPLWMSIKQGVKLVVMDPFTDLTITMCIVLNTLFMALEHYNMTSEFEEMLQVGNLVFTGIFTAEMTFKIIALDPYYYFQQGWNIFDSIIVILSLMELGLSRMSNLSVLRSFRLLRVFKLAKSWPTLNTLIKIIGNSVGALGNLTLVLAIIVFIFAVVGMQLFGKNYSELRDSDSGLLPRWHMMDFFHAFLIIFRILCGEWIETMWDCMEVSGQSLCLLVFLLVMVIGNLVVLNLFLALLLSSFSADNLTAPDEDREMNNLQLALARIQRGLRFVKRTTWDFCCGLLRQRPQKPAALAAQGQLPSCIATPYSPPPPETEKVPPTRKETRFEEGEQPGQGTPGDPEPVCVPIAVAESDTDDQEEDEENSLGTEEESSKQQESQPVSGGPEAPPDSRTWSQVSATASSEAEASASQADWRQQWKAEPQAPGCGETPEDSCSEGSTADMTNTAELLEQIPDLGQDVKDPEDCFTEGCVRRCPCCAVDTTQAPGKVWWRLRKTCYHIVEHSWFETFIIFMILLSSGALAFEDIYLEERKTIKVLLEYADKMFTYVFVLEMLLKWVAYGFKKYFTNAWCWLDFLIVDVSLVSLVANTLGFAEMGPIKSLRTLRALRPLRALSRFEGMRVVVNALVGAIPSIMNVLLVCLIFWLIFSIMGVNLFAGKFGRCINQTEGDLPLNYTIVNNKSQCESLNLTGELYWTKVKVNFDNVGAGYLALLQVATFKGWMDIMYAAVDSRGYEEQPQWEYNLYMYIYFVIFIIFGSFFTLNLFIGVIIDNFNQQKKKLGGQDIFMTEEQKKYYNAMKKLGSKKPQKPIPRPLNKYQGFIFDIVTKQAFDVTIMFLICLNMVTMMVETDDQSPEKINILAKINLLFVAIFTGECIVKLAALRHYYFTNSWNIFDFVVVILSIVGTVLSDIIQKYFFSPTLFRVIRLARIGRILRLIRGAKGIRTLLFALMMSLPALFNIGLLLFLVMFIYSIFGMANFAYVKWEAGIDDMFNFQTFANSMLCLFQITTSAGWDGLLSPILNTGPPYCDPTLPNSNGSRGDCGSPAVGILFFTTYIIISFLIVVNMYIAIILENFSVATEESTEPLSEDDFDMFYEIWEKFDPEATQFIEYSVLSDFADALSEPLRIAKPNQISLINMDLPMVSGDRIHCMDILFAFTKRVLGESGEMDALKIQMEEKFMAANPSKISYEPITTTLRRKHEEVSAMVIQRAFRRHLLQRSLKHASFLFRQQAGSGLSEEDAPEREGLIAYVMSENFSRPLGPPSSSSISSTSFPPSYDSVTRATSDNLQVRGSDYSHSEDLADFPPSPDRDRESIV
Type: cell-based
Description: The late sodium current (Late INa) and peak sodium current (Peak INa) assays are performed on an automated electrophysiology platform, PatchXpress 7000A (MDS Analytical Technologies, Sunnyvale, Calif.), which uses the whole cell patch clamp technique to measure currents through the cell membrane of up to 16 cells at a time. The assay uses an HEK293 (human embryonic kidney) cell line heterologously expressing the wild-type human cardiac sodium channel, hNav1.5, purchased from Millipore (Billerica, Mass.). No beta subunits were coexpressed with the Na channel alpha subunit. Cells are maintained with standard tissue culture procedures and stable channel expression is maintained with 400 μg/ml Geneticin in the culture medium. […] Experiments are carried out at 24-27° C.
For both the Late INa and Peak INa assays, series resistance compensation is set to 50% and whole-cell compensation is performed automatically. […] Currents through open sodium channels are automatically recorded and stored in the DataXpress2 database (MDS Analytical Technologies, Sunnyvale, Calif.). Analysis is performed using DataXpress2 analysis software and data are compiled in Excel.
Compound stocks are routinely made in glass vials to 10 mM in dimethyl sulfoxide (DMSO). In some cases, when compounds are not soluble in DMSO, they are made in 100% ethanol. Stocks are sonicated as necessary. The extracellular solution for screening Late INa is composed of: 140 mM NaCl, 4 mM KCl, 1.8 mM CaCl2, 0.75 mM MgCl2, and 5 mM HEPES with pH adjusted to 7.4 using NaOH. The extracellular solution for screening Peak INa is composed of: 20 mM NaCl, 120 mM N-methyl-D glucamine, 4 mM KCl, 1.8 mM CaCl2, 0.75 mM MgCl2, and 5 mM HEPES with pH adjusted to 7.4 using HCl. The intracellular solution used to perfuse the inside of the cells for both the Late INa and Peak INa assays contains: 120 mM CsF, 20 mM CsCl, 5 mM EGTA, 5 mM HEPES and pH adjusted to 7.4 with CsOH. […] The 0Na extracellular solution used at the end of each experiment for the Late INa and Peak INa assays to measure baseline current contains: 140 mM N-methyl-D-glucamine; 4 mM KCl; 1.8 mM CaCl2; 0.75 mM MgCl2; 5 mM HEPES and pH was adjusted to 7.4 with HCl.
For the Late INa assay, sodium channels are activated every 10 seconds (0.1 Hz) by depolarizing the cell membrane to −20 mV for 250 milliseconds (ms) from a holding potential of −120 mV. In response to a −20 mV voltage step, typical Nav1.5 sodium currents activate rapidly to a peak negative current and then inactivate nearly completely within […].
All compounds are tested to determine their activity in blocking the late sodium current. Late INa current is generated by adding 10 μM Tefluthrin (pyrethroid) to the extracellular solution while recording Na currents For some experiments, 50 nM ATX II (sea anemone toxin), another late Na activator, was used to generate the late component. […] After establishing the whole cell recording configuration, late INa activators are added to each well 4 times over a 16-17 minute period so that the late component of the Na current reaches a stable value. […] Measurements are made at the end of exposure to the third compound addition and values are normalized to the current level when all Na^+ is removed from the extracellular solution after two additions of ONa-ECF. Results are reported as percent block of late INa

Structure (SMILES)	inhibition at 1 µM [%]
CS(=O)(=O)Nc1ccc(-c2cccc(OC(F)(F)F)c2)c(F)c1 [PT-067, N-[2-fluoro-3′-(trifluoromethoxy)biphenyl-4-yl]methanesulfonamide]	13.8
CS(=O)(=O)N(CCN1CCCCC1)c1ccc(-c2ccc(Cl)c(F)c2)c(Cl)c1 [PT-062, N-(2,4′-dichloro-3′-fluorobiphenyl-4-yl)-N-[2-(piperidin-1-yl)ethyl]methanesulfonamide]	25.7
CS(=O)(=O)Nc1ccc(-c2ccc(F)c(Cl)c2)c(Cl)c1 [PT-038, N-(2,3′-dichloro-4′-fluorobiphenyl-4-yl)methanesulfonamide]	28.8
CS(=O)(=O)Nc1ccc(-c2ccc(Cl)cc2)c(Cl)c1 [PT-043, N-(2,4′-dichlorobiphenyl-4-yl)methanesulfonamide]	17.4
CS(=O)(=O)Nc1ccc(-c2cccc(OC(F)(F)F)c2)c(Cl)c1 [PT-021, N-[2-chloro-3′-(trifluoromethoxy)biphenyl-4-yl]methanesulfonamide]	34

Same assay, conditions: 10 μM test compound; HEK293 hNav1.5; late INa generated with 10 μM Tefluthrin (some experiments 50 nM ATX II); read-out: Late INa % blk (10 μM test cmpd)

Structure (SMILES)	inhibition at 10 µM [%]
CS(=O)(=O)Nc1ccc(-c2ccc(F)cc2Cl)cc1Cl [PT-098, N-(2′,3-dichloro-4′-fluorobiphenyl-4-yl)methanesulfonamide]	36.4
CS(=O)(=O)Nc1cccc(-c2ccc(Oc3ccc(C(=O)O)cc3)cc2)c1 [PT-131, 4-(3′-(methylsulfonamido)biphenyl-4-yloxy)benzoic acid]	20.8
CS(=O)(=O)Nc1ccc(-c2ccc(OC(F)(F)F)cc2)c(Cl)c1 [PT-094, N-[2-chloro-4′-(trifluoromethoxy)biphenyl-4-yl]methanesulfonamide]	5.6
CS(=O)(=O)Nc1ccc(-c2cccc(OC(F)(F)F)c2)c(F)c1 [PT-067, N-[2-fluoro-3′-(trifluoromethoxy)biphenyl-4-yl]methanesulfonamide]	70.7
CC(C)(C)OC(=O)CN(c1ccc(-c2ccc(C(F)(F)F)cc2)c(Cl)c1)S(C)(=O)=O [PT-128, tert-butyl 2-(N-(2-chloro-4′-(trifluoromethyl)biphenyl-4-yl)methylsulfonamido)acetate]	25.7
CS(=O)(=O)N(CCN1CCCCC1)c1ccc(-c2ccc(Cl)c(F)c2)c(Cl)c1 [PT-062, N-(2,4′-dichloro-3′-fluorobiphenyl-4-yl)-N-[2-(piperidin-1-yl)ethyl]methanesulfonamide]	74.8
O=C(O)c1cc(-c2ccc(Oc3ccccc3)cc2)ccc1NS(=O)(=O)C1CC1 [PT-117, 4-[(cyclopropylsulfonyl)amino]-4′-phenoxybiphenyl-3-carboxylic acid]	40.7
CS(=O)(=O)Nc1ccc(-c2ccc(F)c(Cl)c2)c(Cl)c1 [PT-038, N-(2,3′-dichloro-4′-fluorobiphenyl-4-yl)methanesulfonamide]	71
O=S(=O)(C1CC1)N(Cc1cccnc1)c1ccc(-c2cccc(OC(F)(F)F)c2)c(Cl)c1 [PT-081, N-[2-chloro-3′-(trifluoromethoxy)biphenyl-4-yl]-N-(pyridin-3-ylmethyl)cyclopropanesulfonamide]	40.4
Cc1cc(N([C@@H](C)C(=O)O)S(C)(=O)=O)ccc1-c1ccc(Oc2ccccc2)cc1 [PT-105, N-(2-methyl-4′-phenoxybiphenyl-4-yl)-N-(methylsulfonyl)alanine]	5.8
CS(=O)(=O)Nc1ccc(-c2ccc(Cl)c(F)c2)cc1 [PT-005, N-(4′-chloro-3′-fluorobiphenyl-4-yl)methanesulfonamide]	20.5
CS(=O)(=O)Nc1ccc(-c2ccc(OC(F)(F)F)cc2)cc1OC(F)(F)F [PT-099, N-[3,4′-bis(trifluoromethoxy)biphenyl-4-yl]methanesulfonamide]	8.9
CC(C)Oc1ccc(-c2ccc(NS(C)(=O)=O)c(Cl)c2)cc1 [PT-148, N-(3-chloro-4′-isopropoxybiphenyl-4-yl)methanesulfonamide]	36.2
COc1cccc(S(=O)(=O)Nc2cccc(-c3ccc(Cl)cc3)c2)c1 [PT-127, N-(4′-chlorobiphenyl-3-yl)-3-methoxybenzenesulfonamide]	25
CS(=O)(=O)Nc1ccc(-c2ccc(Cl)cc2)c(Cl)c1 [PT-043, N-(2,4′-dichlorobiphenyl-4-yl)methanesulfonamide]	71.5
CS(=O)(=O)Nc1ccc(-c2cccc(OC(F)(F)F)c2)c(Cl)c1 [PT-021, N-[2-chloro-3′-(trifluoromethoxy)biphenyl-4-yl]methanesulfonamide]	77.5
COc1cc(NS(C)(=O)=O)ccc1-c1ccc(OC(F)(F)F)cc1 [PT-009, N-[2-methoxy-4′-(trifluoromethoxy)biphenyl-4-yl]methanesulfonamide]	20.9

Structure (SMILES)	inhibition at 10 µM [%]
CS(=O)(=O)N(CC(=O)O)c1ccc(-c2cccc(OC(F)(F)F)c2)c(F)c1 [PT-103, N-[2-fluoro-3′-(trifluoromethoxy)biphenyl-4-yl]-N-(methylsulfonyl)glycine]	21.2
CS(=O)(=O)Nc1ccc(-c2ccc(F)cc2Cl)c(Cl)c1 [PT-045, N-(2,2′-dichloro-4′-fluorobiphenyl-4-yl)methanesulfonamide]	57.5
CS(=O)(=O)Nc1ccc(-c2ccc(Oc3ccc(F)cc3)cc2)cc1Cl [PT-149, N-(3-chloro-4′-(4-fluorophenoxy)biphenyl-4-yl)methanesulfonamide]	58
COc1cc(NS(C)(=O)=O)ccc1-c1ccc(F)cc1 [PT-031, N-(4′-fluoro-2-methoxybiphenyl-4-yl)methanesulfonamide]	17.1
CCOC(=O)CN(c1ccc(-c2ccc(Cl)c(F)c2)c(OC)c1)S(C)(=O)=O [PT-019, ethyl N-(4′-chloro-3′-fluoro-2-methoxybiphenyl-4-yl)-N-(methylsulfonyl)glycinate]	55
CS(=O)(=O)N(CC(=O)O)c1ccc(-c2cccc(OC(F)(F)F)c2)c(Cl)c1 [PT-029, N-[2-chloro-3′-(trifluoromethoxy)biphenyl-4-yl]-N-(methylsulfonyl)glycine]	28.4
O=C(NCCO)c1cc(-c2ccc(C(F)(F)F)cc2)ccc1NS(=O)(=O)C1CC1 [PT-162, 4-(cyclopropanesulfonamido)-N-(2-hydroxyethyl)-4′-(trifluoromethyl)biphenyl-3-carboxamide]	-5.3
CS(=O)(=O)N(Cc1ccc(CC(=O)O)cc1)c1ccc(-c2ccc(Oc3ccccc3)cc2)c(Cl)c1 [PT-161, 2-(4-((N-(2-chloro-4′-phenoxybiphenyl-4-yl)methylsulfonamido)methyl)phenyl)acetic acid]	30.9
CC(C)Oc1ccc(-c2ccc(NS(=O)(=O)C3CC3)c(C#N)c2)cc1 [PT-152, N-(3-cyano-4′-isopropoxybiphenyl-4-yl)cyclopropanesulfonamide]	29
Cc1cc(NS(C)(=O)=O)ccc1-c1ccc(F)cc1 [PT-056, N-(4′-fluoro-2-methylbiphenyl-4-yl)methanesulfonamide]	40.8
CS(=O)(=O)N(CC(=O)O)c1ccc(-c2ccc(F)c(Cl)c2)c(Cl)c1 [PT-104, N-(2,3′-dichloro-4′-fluorobiphenyl-4-yl)-N-(methylsulfonyl)glycine]	14.2
O=S(=O)(Nc1ccc(-c2ccc(Oc3ccccc3)cc2)cc1)C1CC1 [PT-072, N-(4′-phenoxybiphenyl-4-yl)cyclopropanesulfonamide]	35.6
CS(=O)(=O)Nc1ccc(-c2ccc(F)c(F)c2)c(Cl)c1 [PT-023, N-(2-chloro-3′,4′-difluorobiphenyl-4-yl)methanesulfonamide]	48.2
CS(=O)(=O)Nc1ccc(-c2ccc(C(F)(F)F)cc2)cc1 [PT-006, N-[4′-(trifluoromethyl)biphenyl-4-yl]methanesulfonamide]	22.7
CS(=O)(=O)Nc1ccc(-c2cc(C(F)(F)F)ccc2F)c(Cl)c1 [PT-070, N-[2-chloro-2′-fluoro-5′-(trifluoromethyl)biphenyl-4-yl]methanesulfonamide]	69.7
CS(=O)(=O)Nc1ccc(-c2cccc(OC(F)(F)F)c2)cc1 [PT-008, N-[3′-(trifluoromethoxy)biphenyl-4-yl]methanesulfonamide]	39.4
CS(=O)(=O)Nc1ccc(-c2cccc(C(F)(F)F)c2)c(Cl)c1 [PT-036, N-[2-chloro-3′-(trifluoromethyl)biphenyl-4-yl]methanesulfonamide]	64.1
